Experimental findings from patent publication US20260374739A1, “SMALL MOLECULAR WEIGHT CHEMICAL COMPOUND TO ANTAGONIZE EPH-EPHRIN TETRAMERIZATION AND INHIBIT BIDIRECTIONAL SIGNALING” (THE BOARD OF REGENTS OF THE UNIVERSITY OF TEXAS SYSTEM, priority 2022, published 2026) are described below.

Several values for one entry are separate records, joined by “and”; a condition that tells them apart may be missing. Identical values can stand only once. Entries after “also recorded” stand apart in the source; their conditions may differ. Marks after values point to notes of the source that are not given here.

Test [1] concerns the target T1, EphrinB2-EphB2 (Homo sapiens, UniProt P29323).
T1 construct: soluble human EphB1-His, EphB2-His, and EphB4-His ectodomains; commercially available human EphrinB1-Fc (EB1), EphrinB2-Fc (EB2), and EphrinB3-Fc (EB3) ectodomain proteins; purchased
T1 sequence (P29323 19-543 limits assumed): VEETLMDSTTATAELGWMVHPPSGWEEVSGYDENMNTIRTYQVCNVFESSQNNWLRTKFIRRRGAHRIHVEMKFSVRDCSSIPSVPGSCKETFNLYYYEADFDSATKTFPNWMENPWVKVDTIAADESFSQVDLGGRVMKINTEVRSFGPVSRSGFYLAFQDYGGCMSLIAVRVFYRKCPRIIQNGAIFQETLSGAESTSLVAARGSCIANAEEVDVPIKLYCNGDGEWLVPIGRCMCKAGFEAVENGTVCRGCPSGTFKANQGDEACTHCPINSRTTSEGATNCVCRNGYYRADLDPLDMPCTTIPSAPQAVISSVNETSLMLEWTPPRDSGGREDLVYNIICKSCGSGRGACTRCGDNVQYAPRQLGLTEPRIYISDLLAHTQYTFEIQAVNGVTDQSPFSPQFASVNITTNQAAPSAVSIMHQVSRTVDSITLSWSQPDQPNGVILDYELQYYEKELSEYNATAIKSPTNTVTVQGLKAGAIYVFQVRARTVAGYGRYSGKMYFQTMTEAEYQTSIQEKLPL
The experiment in a line: Octet tetramerization inhibition, immobilized human EphrinB2 binding to 50 nM soluble human EphB2. Background: In BLI a coated tip is dipped into the sample, and binding shifts an interference pattern.

A further test concerns the target T2, EphrinB2-EphB4 (Homo sapiens, UniProt P54760).
T2 construct: soluble human EphB1-His, EphB2-His, and EphB4-His ectodomains; commercially available human EphrinB1-Fc (EB1), EphrinB2-Fc (EB2), and EphrinB3-Fc (EB3) ectodomain proteins; purchased
T2 sequence (P54760 16-539 limits assumed): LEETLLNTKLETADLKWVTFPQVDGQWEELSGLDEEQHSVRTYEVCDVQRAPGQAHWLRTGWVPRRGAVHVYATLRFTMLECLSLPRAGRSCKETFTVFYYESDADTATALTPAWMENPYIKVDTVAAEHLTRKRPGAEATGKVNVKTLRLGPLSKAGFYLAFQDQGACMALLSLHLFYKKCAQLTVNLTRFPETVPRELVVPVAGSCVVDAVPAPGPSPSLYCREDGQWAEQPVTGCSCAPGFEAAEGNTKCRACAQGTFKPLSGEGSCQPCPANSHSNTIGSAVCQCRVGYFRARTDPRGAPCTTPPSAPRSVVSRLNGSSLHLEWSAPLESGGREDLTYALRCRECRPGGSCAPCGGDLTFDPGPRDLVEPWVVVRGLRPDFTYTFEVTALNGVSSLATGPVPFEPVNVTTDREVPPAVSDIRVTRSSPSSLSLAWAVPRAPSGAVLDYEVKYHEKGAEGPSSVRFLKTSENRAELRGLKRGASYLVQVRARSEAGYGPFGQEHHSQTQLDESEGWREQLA
The experiment in a line: Octet 80 sec association/500 sec dissociation, immobilized human EphrinB2-Fc binding to soluble human EphB4-His. As to conditions: for selectivity among EphrinB2-EphB1/B2/B4: 3.2 μM. On the procedure:
(§1) In another experiment, whether certain A20 analogs might have specificity for different Eph receptors was tested. An Octet RED384 system was used to obtain biophysical ON-OFF binding data (association-dissociation) for the three different human EphrinB2-EphB1, EphrinB2-EphB2, and EphrinB2-EphB4 protein-protein interactions and to assess the effect of A20 chemicals on the binding kinetics.
(§2) FIGS. 72A-72C show three example Octet sensorgram response traces for the immobilized human EphrinB2 ectodomain protein binding to soluble forms of the human EphB1, EphB2, and EphB4 ectodomain proteins, in the absence or presence of an A20 chemical (buffer conditions are always PBSTD:PBS with 0.05% Tween-20, 1% DMSO, and +/− indicated chemical). After loading EphrinB2-Fc protein to Octet AHC biosensors, washing, and obtaining stable baseline measurements in the appropriate PBSTD (either with or without indicated chemical), the sensors are placed in its buffer that also contains the indicated soluble EphB protein for the association step (0-80″), and then returned to its buffer for the dissociation step (81″-580″). In each figure (FIGS. 72A-72C), a sensorgram run using 10 μM of the 2×HCl salt form of A20-I is compared to the no compound control run to exemplify the maximum level of reduced response signal typically obtained with a potent A20 chemical.
(§3) Because the response levels during the dissociation step plateau for the EphrinB2-EphB2 and EphrinB2-EphB1 interactions by the first 80″, AUCs were also calculated for run data encompassing the first 160″ of each experiment to account for both the 80″ association data (red asterisks) and the first 80″ of dissociation data (marked by green line and asterisks).
(§4) The selectivity of another A20 analog (a 3×HCL salt form of compound BQPB4) in comparison to previously tested compound, A20-1, was tested as described in Example 27 above.
(§5) Further to the experiments listed above, a series of dose-response experiments were conducted to determine the IC50 of a selected A20 chemical (A20-1) on the kinetics of human EphrinB2 ligand ectodomain protein binding to its cognate human EphB1, EphB2, and EphB4 receptor ectodomain proteins. FIG. 74A-74C are representative sensorgrams showing the effect of 0, 0.1, 0.2, 0.4, 0.8, 1.6, and 3.2 μM, concentrations of the 2×HCl salt of A20-I along with a 10 μM max standard (also A20-1) on three different Ephrin-EphB interactions (e.g., EphB1 in FIG. 74A, EphB2 in FIG. 74B and EphB4 in FIG. 74C). […] Additional IC50 values were determined at specific timepoints, at 75″ into the association step and at 55″ into the dissociation step (135″).
(§6) All absolute and relative IC50 values are provided in the Table 6 below, where absolute are based off the full binding sensorgram traces, and relative are based off of the max control traces.
(§7) In another experiment, the % inhibition for various A20 analog chemicals against the three different EphrinB2-EphB protein interactions was determined. Specifically, the percent inhibition for immobilized human EphrinB2-Fc binding to 25 nM soluble human EphB1-His (FIG. 76A, enlarged in FIG. 76D), EphB2-His (FIG. 76B, enlarged in FIG. 76E), and EphB4-His (FIG. 76C, enlarged in FIG. 76F) with 3511-I, 8009-9255, QTM-Br, A19, A19-NO2, and IM (all at 3.2 μM) was determined.

For test [2], the target named is T1, EphrinB2-EphB2. Nature of the test: Octet 80 sec association/500 sec dissociation, immobilized human EphrinB2-Fc binding to soluble human EphB2-His. As to conditions: immobilized human EphrinB2, 25 nM soluble human EphB2. On the procedure: as §1, §2, §3, §4, §5, §6, §7
[3] abbreviates: Absolute AUC/IC50, Table A, EphrinB2-EphB2.
[4] abbreviates: Absolute Association IC50 (300 sec), Table A, EphrinB2-EphB2.
The mark [5] stands for this setting: Absolute Dissociation IC50 (450 sec), Table A, EphrinB2-EphB2.
Setting [6] is: Relative AUC/IC50, Table A, EphrinB2-EphB2, compound 7: association only.
Setting [7] is: Relative Association IC50 (300 sec), Table A, EphrinB2-EphB2.
Where [8] appears, read: Relative Dissociation IC50 (450 sec), Table A, EphrinB2-EphB2.
Setting [9] is: tetramerization inhibitor IC50 (relative), association step, surmountable tetramer.

Turning to `Oc1ccc(CN2CCOCC2)c2cccnc12` [Compound 2, 4-((8-hydroxyquinolin-1-ium-5-yl)methyl)morpholin-4-ium chloride], the IC50 at EphrinB2-EphB2 [1] (setting [3]) is over 6.4 µM; at EphrinB2-EphB2 [1] (setting [4]), over 6.4 µM; on EphrinB2-EphB2 [1] (setting [5]) it was over 6.4 µM; on EphrinB2-EphB2 [1] (setting [6]), 2.29 µM; at EphrinB2-EphB2 [1] (setting [7]) it was 2.09 µM; at EphrinB2-EphB2 [1] (setting [8]), 2.75 µM.
`O=S1(=O)CCN(Cc2cc(I)c(O)c3ncccc23)CC1` [Compound 18, 4-((8-hydroxy-7-iodoquinolin-5-yl)methyl)thiomorpholine 1,1-dioxide] displayed a concentration for half-maximal inhibition (IC50) at EphrinB2-EphB2 [1] (setting [9]) of about 0.8 µM.
Consider `Oc1ccc(CN2CCN(c3ccccc3)CC2)c2cccnc12` [Compound 22, 5-((4-phenylpiperazin-1-yl)methyl)quinolin-8-ol], for which the 50% inhibitory concentration (IC50) at EphrinB2-EphB2 [1] (setting [3]) was over 3.2 µM; at EphrinB2-EphB2 [1] (setting [4]), over 3.2 µM; on EphrinB2-EphB2 [1] (setting [5]), over 3.2 µM; on EphrinB2-EphB2 [1] (setting [7]) it was 3 µM; at EphrinB2-EphB2 [1] (setting [9]), about 3 µM.
Take `Oc1ccc(CN2CCN(c3ccc(I)cc3)CC2)c2cccnc12` [Compound 31, 5-((4-(4-iodophenyl)piperazin-1-yl)methyl)quinolin-8-ol]: the “tetramerization inhibitor activity” value at EphrinB2-EphB2 [1] was “appeared less potent”.
With `O=[N+]([O-])c1ccc(N2CCN(Cc3ccc(O)c4ncccc34)CC2)cc1` [Compound 37, 5-((4-(4-nitrophenyl)piperazin-1-yl)methyl)quinolin-8-ol], the “disruption of unsurmountable tetramer” value on EphrinB2-EphB2 [1] (0.8-3.2 μM, listed as QPB-NO4) is given as “slight ability to disrupt the unsurmountable tetramer; also recorded: able to inhibit a small amount of the EphrinB2-EphB2 unsurmountable tetramer”. The compound further yielded a half-maximal inhibitory concentration (IC50) at EphrinB2-EphB2 [1] (setting [9]) of about 1.6 µM.
On to `CC(=O)Nc1ccc(N2CCN(Cc3ccc(O)c4ncccc34)CC2)cc1` [Compound 50, N-(4-(4-((8-hydroxyquinolin-5-yl)methyl)piperazin-1-yl)phenyl)acetamide], for which the IC50 was over 3.2 µM on EphrinB2-EphB2 [1] (setting [3]); over 3.2 µM on EphrinB2-EphB2 [1] (setting [4]); over 3.2 µM at EphrinB2-EphB2 [1] (setting [5]); 2.77 µM at EphrinB2-EphB2 [1] (setting [7]); 1.95 µM at EphrinB2-EphB2 [1] (setting [8]); over 3 µM on EphrinB2-EphB2 [1] (setting [9]).
Regarding `O=C(Cc1ccccc1)Nc1ccc(N2CCN(Cc3cc(Br)c(O)c4ncccc34)CC2)cc1` [Compound 52, N-(4-(4-((7-bromo-8-hydroxyquinolin-5-yl)methyl)piperazin-1-yl)phenyl)-2-phenylacetamide], the IC50 at EphrinB2-EphB2 [1] (setting [3]) was over 3.2 µM; on EphrinB2-EphB2 [1] (setting [4]) it was over 3.2 µM; at EphrinB2-EphB2 [1] (setting [5]), over 3.2 µM; at EphrinB2-EphB2 [1] (setting [6]), over 3.2 µM; at EphrinB2-EphB2 [1] (setting [7]) it was 3.31 µM; at EphrinB2-EphB2 [1] (setting [8]), over 3.2 µM. The half-maximal inhibitory concentration (IC50) at EphrinB2-EphB2 [1] (setting [9]) was over 3 µM. Further, the “selectivity among EphrinB2-EphB1/B2/B4” value on EphrinB2-EphB4 was “less action toward EphB4 and EphB2 but high specificity for EphB1”.
As for `Cc1ccc2c(CN3CCN(c4ccc(Br)cc4)CC3)ccc(O)c2n1` [Compound 60, 5-((4-(4-bromophenyl)piperazin-1-yl)methyl)-2-methylquinolin-8-ol], the “tetramerization inhibitor activity” value on EphrinB2-EphB2 [1] is given as “appears to eliminate tetramerization inhibitor activity”. In addition, the IC50 at EphrinB2-EphB2 [1] (setting [3]), at EphrinB2-EphB2 [1] (setting [4]), at EphrinB2-EphB2 [1] (setting [5]), at EphrinB2-EphB2 [1] (setting [6]), on EphrinB2-EphB2 [1] (setting [7]) and at EphrinB2-EphB2 [1] (setting [8]) was over 3.2 µM each time.
Regarding `COc1ccccc1N1CCN(Cc2ccc(O)c3ncccc23)CC1` [Compound 69, 5-((4-(2-methoxyphenyl)piperazin-1-yl)methyl)quinolin-8-ol], the “EphB2 Inhibition Percent, Inhibition of Association ONLY” value on EphrinB2-EphB2 [2] (at 3.2 μM and 80 seconds) was 3.6% and 0%. On EphrinB2-EphB2 [2] (at 3.2 μM and 580 seconds), the “EphB2 Inhibition Percent, Inhibition of Association-Dissociation” value was 19.2% and 15.5%. The IC50 on EphrinB2-EphB2 [1] (setting [3]) is over 3.2 µM; at EphrinB2-EphB2 [1] (setting [4]), over 3.2 µM; on EphrinB2-EphB2 [1] (setting [5]) it was over 3.2 µM; on EphrinB2-EphB2 [1] (setting [6]), 2.01 µM; on EphrinB2-EphB2 [1] (setting [7]) it was 2.19 µM; at EphrinB2-EphB2 [1] (setting [8]), 1.7 µM. Further, the “selectivity among EphrinB2-EphB1/B2/B4” value at EphrinB2-EphB4 was “less action toward EphB4 and EphB2 but high specificity for EphB1”. At EphrinB2-EphB4 (at 3.2 μM and 80 seconds, immobilized human EphrinB2, 25 nM soluble human EphB4), the “EphB4 Inhibition Percent, Inhibition of Association ONLY” value is recorded as 0*/0*%. Moreover, the “EphB4 Inhibition Percent, Inhibition of Association-Dissociation” value at EphrinB2-EphB4 (at 3.2 μM and 580 seconds, immobilized human EphrinB2, 25 nM soluble human EphB4) is 2.2% and 0%.
Take `COc1ccc(N2CCN(Cc3cc(Br)c(O)c4ncccc34)CC2)cc1` [Compound 73]: the IC50 on EphrinB2-EphB2 [1] (setting [3]) came to 2.29 µM; at EphrinB2-EphB2 [1] (setting [4]) it was 2.51 µM; at EphrinB2-EphB2 [1] (setting [5]) it was 1.51 µM; on EphrinB2-EphB2 [1] (setting [7]), 1.2 µM; on EphrinB2-EphB2 [1] (setting [8]), 1.07 µM.

Broadly, the IC50 is the concentration that gives 50% inhibition.
